Patent US20230190935A1, “Blood pathogen inactivation method” (Institute of Blood Transfusion CAMS, priority 2021, published 2023)

System: S. aureus
Experiment: Pathogen inactivation in plasma spiked with S. aureus: combinations of low-frequency sonication, UV light and riboflavin
Assay type: cell-based
Details: for growth of S. aureus after treatment: n = 6

Compound: Cc1cc2nc3c(=O)[nH]c(=O)nc-3n(C[C@H](O)[C@H](O)[C@H](O)CO)c2cc1C [riboflavin]
- growth of S. aureus after treatment (Riboflavin-containing sample (50 µmol/L, plasma) + low-frequency sonication 30 KHz, no illumination, table row 0.27 J/mL, 10 min): 5.84 ± 0.18 log
- growth of S. aureus after treatment (Riboflavin-containing sample (50 µmol/L, plasma) + low-frequency sonication 30 KHz, no illumination, table row 0.54 J/mL, 20 min): 5.72 ± 0.30 log
- growth of S. aureus after treatment (Riboflavin-containing sample (50 µmol/L, plasma) + low-frequency sonication 30 KHz, no illumination, table row 0.81 J/mL, 30 min): 5.67 ± 0.32 log
- growth of S. aureus after treatment (Sonication (30 KHz) + UV light (311 ± 50 nm) + riboflavin 50 µmol/L in plasma, light energy 0.27 J/mL, 10 min): 4.48 ± 0.46 log
- growth of S. aureus after treatment (Sonication (30 KHz) + UV light (311 ± 50 nm) + riboflavin 50 µmol/L in plasma, light energy 0.54 J/mL, 20 min): 2.04 ± 0.71 log
- growth of S. aureus after treatment (Sonication (30 KHz) + UV light (311 ± 50 nm) + riboflavin 50 µmol/L in plasma, light energy 0.81 J/mL, 30 min): 1.28 ± 0.66 log
- growth of S. aureus after treatment (UV light (311 ± 50 nm) + riboflavin 50 µmol/L in plasma, no sonication, light energy 0.27 J/mL, 10 min): 5.41 ± 0.029 log
- growth of S. aureus after treatment (UV light (311 ± 50 nm) + riboflavin 50 µmol/L in plasma, no sonication, light energy 0.54 J/mL, 20 min): 5.66 ± 0.09 log
- growth of S. aureus after treatment (UV light (311 ± 50 nm) + riboflavin 50 µmol/L in plasma, no sonication, light energy 0.81 J/mL, 30 min): 5.23 ± 0.16 log
- pathogen inactivation effect (in words) (UV light + riboflavin group, 0.81 J/mL): no inactivation effect
- effect of combining low-frequency sonication with riboflavin photochemical method (in words) (low-frequency sonication + UV light + riboflavin): synergistic effect
- pathogen inactivation effect (in words) (sonication + UV light + riboflavin group): strong pathogen inactivation effect
- pathogen inactivation effect (in words) (sonication + riboflavin group, 0.81 J/mL): no inactivation effect
